This note sets out measurements from patent publication US7897580B2, “β glycolipids as immuno-modulators” (priority 2005, dated 2011).

One series concerns TNBS colitis. As to the kind of experiment: TNBS-induced experimental colitis, single β-glycolipids (Example 1). The series is classed as in vivo, C57Bl mice. As to conditions: oral 15 μg daily, compared with controls. The method, then: (§1) 2,4,6-trinitrobenzene sulfonic acid (TNBS)—colitis was induced by intracolonic instillation of TNBS, 1 mg/mouse, dissolved in […] of 50% ethanol as described. [Collins, C., etal., Eur. J. Immunol. 26:3114-3118 (1996)].
(§2) Diarrhea was followed daily throughout the study.
(§3) Colitis assessment was performed 14 days following colitis induction using standard parameters [Madsen, K. L., et al., Gastroenterology 113:151-159 (1997); Trop, S., et al., Hepatology 27:746-755 (1999)].
Four macroscopic parameters were determined, namely: degree of colonic ulcerations; intestinal and peritoneal adhesions; wall thickness; and degree of mucosal edema. Each parameter was graded on a scale from 0 (completely normal) to 4 (most severe) by two experienced blinded examiners. […]
Immediately following lymphocyte isolation, triplicates of 2-5×10^4 cells/500 μl PBS were put into Falcon 2052 tubes incubated with 4 ml of 1% BSA for 10 minutes, and centrifuged at 1400 rpm for 5 minutes. […] Cells were washed twice in 1% BSA, and kept in 4° C. until reading. […] Analytical cell sorting was performed on 1×10^4 cells from each group with a fluorescence-activated cell sorter (FACSTAR plus, Becton Dickinson). Only live cells were counted, and background fluorescence from non-antibody-treated lymphocytes was deducted from the levels obtained. […]

The test system of another series is human Hep3B HCC. As to the kind of experiment: Hep3B hepatocellular carcinoma transplanted into athymic Balb/c mice (Example 2). As to conditions: for hepatic/splenic NKT lymphocyte ratio / reduction of tumor volume (% change from maximal volume) / tumors developed (% of animals) / maximal tumor volume: daily i.p. 1.5 μg for 25 days; for hepatic/splenic NKT lymphocyte ratio: PBS control 0.38, p<0.05, FIG. 7; for reduction of tumor volume (% change from maximal volume): controls 10% increase, p<0.05, FIG. 6; for tumors developed (% of animals): controls 100%, FIG. 4; for maximal tumor volume: controls 101.14 mm^3, p<0.05, FIG. 5; for STAT4 expression in splenocytes / STAT6 expression in splenocytes: vs. controls, FIG. 9. The series is classed as in vivo. The text has this: Splenocytes were isolated and red blood cells removed as previously described [Vicari, A. P., et al., Immunology Today 17(2):71 (1996)]. Intrahepatic lymphocytes were isolated from all groups of mice at the end of the study, as previously described, with some modifications [Vicari et al., (1996) ibid.; Bleicher, P. A., et al., Science 250:679-682 (1990)]. […] The connective tissue and the gall bladder were removed, and livers were place in a 10-ml dish in cold sterile PBS. Livers and spleens were crushed through a stainless mesh (size 60, Sigma Chemical Co., St. Louis Mo.). Cell suspension was placed in a 50 ml tube for 3 minutes and washed twice in cold PBS (1,250×rpm for 10 minutes), and debris was removed. Cells were re-suspended in PBS, cell suspension was placed through a nylon mesh presoaked in PBS, and unbound cells were collected. Cells were washed twice in 45 ml PBS (1,250×rpm in room temperature). For liver and spleen lymphocyte isolation 20 ml of histopague 1077 (Sigma Diagnostics, St. Louis, Mo.) were slowly placed underneath the cells suspended in 7 ml of PBS, in a 50-ml tube. The tube was centrifuged at 1,640 rpm for 15 minutes at room temperature. Cells at the interface were collected, diluted in a 50-ml tube, and washed twice with ice-cold PBS (1,250 rpm for 10 minutes). Approximately 1×10^6 cells/mouse liver were recovered. The viability by trypan blue staining was more than 95%. Both splenocytes and liver-associated lymphocytes were isolated from all animals in all experimental groups.
Immediately following lymphocyte isolation, triplicates of 2-5×10^4 cells/500 μl PBS were put into Falcon 2052 tubes incubated with 4 ml of 1% BSA for 10 minutes, and centrifuged at 1400 rpm for 5 minutes. Analysis of lymphocyte subpopulations was performed using anti-NK1.1, anti-CD3, anti-CD4 and anti CD-8 antibodies. Cells were washed twice in 1% BSA, and kept in 4° C. until reading. For the control group, only 5 μl of 1% BSA was added. Analytical cell sorting was performed on 1×10^4 cells from each group with a fluorescence-activated cell sorter (FACSTAR plus, Becton Dickinson). Only live cells were counted, and background fluorescence from non-antibody-treated lymphocytes was deducted from the levels obtained. Gates were set on forward- and side-scatters to exclude dead cells and red blood cells. The data were analyzed with Consort 30 two-color contour plot program (Becton Dickinson, Oxnard, Calif.), or the CELLQuest program.
Blood was drawn from mice in all groups and centrifuged at 14,000 rpm. Serum INFγ, IL2, IL4, IL10 and IL-12 levels were measured by “sandwich” ELISA using Genzyme Diagnostics kits (Genzyme Diagnostics, Mass.).
To determine the clinical and immunological consequences of administration of different β-glycolipids such as β-glucosylceramide (GluC), β-lactosyl-ceramide (LacC), and β-galactosyl-ceramide (GalC) and of ceramide on hepatocellular carcinoma (HCC), mice transplanted with human Hep3B HCC cells, were studied. Five groups of athymic Balb/c mice, consisting of 8 mice each, were sublethally irradiated and transplanted with human Hep3B HCC, followed by daily intraperitoneal injections of GluC, LacC, GalC, ceramide (1.5 μg in 100 μl PBS) or PBS (100μ) for 25 days. Animals were followed for tumor size and weight and for intrahepatic and intrasplenic lymphocyte subpopulations, serum cytokine levels and expression of STAT1, STAT4 and STAT6 in splenocytes.

Another series relates to TNBS induced colitis. The series is described as follows: TNBS-induced colitis, mixture of β-GluC and β-LacC vs β-LacC alone (Example 3). The class given is in vivo, mice. As to conditions: with TNBS; for Weight: share of mice, TNBS alone: Weight loss, listed as β-LC. The method, then:
as §1, §2, §3
Four macroscopic parameters were determined, namely: degree of colonic ulcerations; intestinal and peritoneal adhesions; wall thickness; and degree of mucosal edema. Each parameter was graded on a scale from 0 (completely normal) to 4 (most severe) by two experienced blinded examiners.
For histological evaluation of inflammation, distal colonic tissue (last 10 cm) was removed and fixed in 10% formaldehyde. Five paraffin sections from each mouse were then stained with hematoxylin-eosin by using standard techniques. The degree of inflammation on microscopic cross sections of the colon was graded semiquantitatively from 0 to 4 [Madsen et al., (1997) ibid.; Trop et al., Hepatology 27:746-755 (1999)]. Grade 0: normal with no signs of inflammation; Grade 1: very low level of leukocyte infiltration; Grade 2: low level of leukocyte infiltration; and Grade 3: high level of infiltration with high vascular density, and bowel wall thickening; Grade 4: transmural infiltrates with loss of goblet cells, high vascular density, wall thickening, and disruption of normal bowel architecture. The grading was performed by two experienced blinded examiners.
To determine the possible immuno-modulation effect of a mixture of different β-glycolipids, the effect of a mixture of β-Glucocerebroside and β-Lactosyl-ceramide was tested using a murine model of colitis.
As summarized in Table 3, five groups of mice were studied, each consisting of 10 mice. Colitis was induced by intracolonic installation of trinitrobenzenesulfonic acid (TNBS) on day 1 and 5 in groups A, B and D. Group A mice were fed regular chow diet. […]

Series [1] can be described thus: Mixture of β-GluC and β-LacC or β-LacC alone in mice not treated with TNBS, control groups (Example 3). The series is classed as in vivo. The following applies: without TNBS. The method, then:
As summarized in Table 3, five groups of mice were studied, each consisting of 10 mice. Colitis was induced by intracolonic installation of trinitrobenzenesulfonic acid (TNBS) on day 1 and 5 in groups A, B and D. Group A mice were fed regular chow diet. Group B mice received oral (PO) 15 μg daily of a mixture of β-GluC and β-LacC, group D received only β-LacC. Groups C and E mice were not treated with TNBS, but received oral (PO) 15 μg daily of a mixture of β-GluC and β-LacC or only β-LacC, respectively, and served as control groups.
Mice were followed for macroscopic and microscopic colitis scores, as well as for survival and functional status and weight.

Turning to β-lactosyl-ceramide [LacC], the “alleviation of colitis (microscopic colitis scores)” value with TNBS colitis (FIG. 1) is listed as “most marked”. The “alleviation of colitis (microscopic colitis scores)” value in the series with TNBS colitis (FIG. 1, listed as Lactosyl-ceramide) is listed as “most potent”. Also, in the series with human Hep3B HCC, the “hepatic/splenic NKT lymphocyte ratio” value amounted to 1.94, the “reduction of tumor volume (% change from maximal volume)” value was found to be 78%, the “tumors developed (% of animals)” value is on record as 43% and the maximal tumor volume turned out to be 77.9 mm^3. Further, in the series with human Hep3B HCC, the “STAT4 expression in splenocytes” value is reported as “increased” and the “STAT6 expression in splenocytes” value is listed as “increased”. Further, the Weight entry with TNBS induced colitis (share of mice with no weight change) is “In 90% no change”. Also, the Weight result with TNBS induced colitis (share of mice with weight increase) was “In 10% increase”. The Activity entry in the series with TNBS induced colitis (TNBS alone: Lethargic) is recorded as “Normal”. Besides, the Activity entry in series [1] is “Normal”. Also, in series [1] (share of mice), the Weight entry is given as “In 100% increase”.
In the case of ceramide, in the series on human Hep3B HCC, the “hepatic/splenic NKT lymphocyte ratio” value turned out to be 0.85, the “reduction of tumor volume (% change from maximal volume)” value is listed as 81%, the “tumors developed (% of animals)” value was determined as 50% and the maximal tumor volume is recorded as 64.4 mm^3. For the same substance, in the series with human Hep3B HCC, the “STAT4 expression in splenocytes” value was “increased” and the “STAT6 expression in splenocytes” value is reported as “increased”.
With β-galactosyl-ceramide [GalC], in the series with human Hep3B HCC, the “reduction of tumor volume (% change from maximal volume)” value was found to be 49%, the “tumors developed (% of animals)” value is 71%, the maximal tumor volume is given as 86.1 mm^3 and the “STAT4 expression in splenocytes” value is listed as “increased”. Moreover, the “STAT6 expression in splenocytes” value with human Hep3B HCC is reported as “increased”.
With β-glucosylceramide, in the series with human Hep3B HCC, the “hepatic/splenic NKT lymphocyte ratio” value was 6.13, the “reduction of tumor volume (% change from maximal volume)” value was 43%, the “tumors developed (% of animals)” value amounted to 87% and the maximal tumor volume is 71.4 mm^3.
